Reference: ChEMBL document CHEMBL2311358, “Inhibitors of HIV-1 attachment. Part 7: indole-7-carboxamides as potent and orally bioavailable antiviral agents” (Bioorg Med Chem Lett, 2013)
Values after ≈ are worked out from the molar mass of the structure shown.

What was measured:
[1] = Half life in human liver microsomes; type: ADME, Microsome
[2] = Cytotoxicity against human HeLa cells expressing CD4 assessed as cell viability after 6 days by XTT assay; type: cell-based
[3] = Aqueous solubility of the compound in crystalline form at pH 6.5; type: physicochemical
[4] = tested on: Human immunodeficiency virus 1; assay: Antiviral activity against HIV1 JRFL infected in human HeLa cells expressing CD4 and CCR5 assessed as inhibition of single-cycle viral replication by luciferase reporter gene assay; type: functional, organism-based; conditions: Human immunodeficiency virus 1, JRFL
[5] = Clearance in rat at 1 mg/kg, iv; type: ADME, organism-based; set-up: dose 1 mg/kg, route intravenous; conditions: in vivo
[6] = Permeability across human Caco2 cells at pH 6.5; type: ADME, cell-based; conditions: Caco-2, pH 6.5, read-out: permeability
[7] = Oral bioavailability in rat at 5 mg/kg; type: ADME, organism-based; conditions: in vivo
[8] = Solubility of the compound in amorphous form in PEG 400 at pH 6.5; type: physicochemical; conditions: PEG 400, pH 6.5
[9] = AUC in monkey at 1 mg/kg, iv and 2.5 mg/kg, po; type: ADME, organism-based, Macaca mulatta; conditions: rhesus monkey, plasma
[10] = Cmax in dog at 1 mg/kg, iv and 2.5 mg/kg, po; type: ADME, organism-based, Canis lupus familiaris; conditions: in vivo
[11] = AUC in rat at 1 mg/kg, iv and 5 mg/kg, po; type: ADME, organism-based; conditions: plasma
[12] = Cmax in monkey at 1 mg/kg, iv and 2.5 mg/kg, po; type: ADME, organism-based, Macaca mulatta; conditions: rhesus monkey, in vivo
[13] = Cmax in rat at 1 mg/kg, iv and 5 mg/kg, po; type: ADME, organism-based; conditions: in vivo
[14] = Oral bioavailability in monkey at 2.5 mg/kg; type: ADME, organism-based, Macaca mulatta; conditions: rhesus monkey, in vivo
[15] = Inhibition of CYP450 (unknown origin); type: ADME, Homo sapiens
[16] = Oral bioavailability in dog at 2.5 mg/kg; type: ADME, organism-based, Canis lupus familiaris; conditions: in vivo
[17] = Plasma protein binding in human; type: ADME, cell-free; conditions: read-out: PPB (converted)
[18] = Half life in dog at 1 mg/kg, iv; type: ADME, organism-based, Canis lupus familiaris; set-up: dose 1 mg/kg, route intravenous; conditions: in vivo
Hepatocyte = assay: Cytotoxicity against human hepatocytes expressing CYP3A4, CYP2C9, CYP2C19, CYP2D6; type: ADME, cell-based
[19] = Half life in monkey at 1 mg/kg, iv; type: ADME, organism-based, Macaca mulatta; set-up: dose 1 mg/kg, route intravenous; conditions: rhesus monkey, in vivo
[20] = AUC in dog at 1 mg/kg, iv and 2.5 mg/kg, po; type: ADME, organism-based, Canis lupus familiaris; conditions: plasma
[21] = Half life in rat at 1 mg/kg, iv; type: ADME, organism-based; set-up: dose 1 mg/kg, route intravenous; conditions: in vivo

Row | Structure (SMILES) | CC50 at 144 h [2] [nM] | EC50 [4] [nM] | further results
1 | O=C(C(=O)N1CCN(C(=O)c2ccccc2)CC1)c1c[nH]c2cccc(F)c12 | > 300000 | 1.24 | half-life [1]: > 1.67 h; solubility ([3]; buffer): 0.005 µg/mL (≈ 0.0132 µM); clearance [5]: 48 mL/min/kg; Papp [6]: 10 ×10⁻⁶ cm/s
2 | O=C(Nc1ccccn1)c1ccc(F)c2c(C(=O)C(=O)N3CCN(C(=O)c4ccccc4)CC3)c[nH]c12 | 69000 | 0.65 | 
3 | O=C(Nc1nnn[nH]1)c1ccc(F)c2c(C(=O)C(=O)N3CCN(C(=O)c4ccccc4)CC3)c[nH]c12 | > 300000 | 0.4 | half-life [1]: > 1.67 h; bioavailability [7]: < 1%; Papp [6]: < 1.5 ×10⁻⁶ cm/s
4 | O=C(Nc1nncs1)c1ccc(F)c2c(C(=O)C(=O)N3CCN(C(=O)c4ccccc4)CC3)c[nH]c12 | 1740 | 0.19 | 
5 | CCn1nccc1NC(=O)c1ccc(F)c2c(C(=O)C(=O)N3CCN(C(=O)c4ccccc4)CC3)c[nH]c12 | 166000 | 3.07 | 
6 | Cc1cc(NC(=O)c2ccc(F)c3c(C(=O)C(=O)N4CCN(C(=O)c5ccccc5)CC4)c[nH]c23)on1 | > 300000 | 0.94 | 
7 | O=C(NC1=NCCS1)c1ccc(F)c2c(C(=O)C(=O)N3CCN(C(=O)c4ccccc4)CC3)c[nH]c12 | > 300000 | 0.02 | 
8 | O=C(Nc1nccs1)c1ccc(F)c2c(C(=O)C(=O)N3CCN(C(=O)c4ccccc4)CC3)c[nH]c12 | 89000 | 0.057 | half-life [1]: 0.0683 h; Papp [6]: > 30 ×10⁻⁶ cm/s
9 | Cc1csc(NC(=O)c2ccc(F)c3c(C(=O)C(=O)N4CCN(C(=O)c5ccccc5)CC4)c[nH]c23)n1 | 29000 | 0.0058 | 
10 | O=C(Nc1nc2ccccc2s1)c1ccc(F)c2c(C(=O)C(=O)N3CCN(C(=O)c4ccccc4)CC3)c[nH]c12 | 81000 | 0.32 | 
11 | O=C(Nc1nc2ccccc2[nH]1)c1ccc(F)c2c(C(=O)C(=O)N3CCN(C(=O)c4ccccc4)CC3)c[nH]c12 | 9200 | 0.04 | 
12 | O=C(Nc1nc(-c2ccccc2)cs1)c1ccc(F)c2c(C(=O)C(=O)N3CCN(C(=O)c4ccccc4)CC3)c[nH]c12 | > 300000 | 0.21 | 
13 | O=C(NCc1ccco1)c1ccc(F)c2c(C(=O)C(=O)N3CCN(C(=O)c4ccccc4)CC3)c[nH]c12 | 71000 | 1.3 | 
14 | O=C(NCc1cccs1)c1ccc(F)c2c(C(=O)C(=O)N3CCN(C(=O)c4ccccc4)CC3)c[nH]c12 | 44000 | 1.06 | 
15 | O=C(NCCc1cc2ccccc2[nH]1)c1ccc(F)c2c(C(=O)C(=O)N3CCN(C(=O)c4ccccc4)CC3)c[nH]c12 | > 300000 | 1.08 | 
16 | CS(=O)(=O)NC(=O)c1ccc(F)c2c(C(=O)C(=O)N3CCN(C(=O)c4ccccc4)CC3)c[nH]c12 | > 300000 | 2.64 | 
17 | O=C(NS(=O)(=O)c1ccccc1)c1ccc(F)c2c(C(=O)C(=O)N3CCN(C(=O)c4ccccc4)CC3)c[nH]c12 | > 300000 | 0.29 | half-life [1]: > 1.67 h; bioavailability [7]: < 2%; Papp [6]: 1.5 ×10⁻⁶ cm/s
18 | COc1ccc(C(N)=O)c2[nH]cc(C(=O)C(=O)N3CCN(C(=O)c4ccccc4)CC3)c12 | 244000 | 0.76 | 
19 | CNC(=O)c1ccc(OC)c2c(C(=O)C(=O)N3CCN(C(=O)c4ccccc4)CC3)c[nH]c12 | > 300000 | 0.76 | half-life [1]: 0.667 h; Papp [6]: 3.9 ×10⁻⁶ cm/s

Row | Structure (SMILES) | CC50 at 144 h [2] [nM] | EC50 [4] [nM] | further results
20 | C[C@@H]1CN(C(=O)c2ccccc2)CCN1C(=O)C(=O)c1c[nH]c2c(C(N)=O)ccc(F)c12 | 141000 | 0.14 | half-life [1]: 0.417 h; Papp [6]: 5.1 ×10⁻⁶ cm/s
21 | CNC(=O)c1ccc(F)c2c(C(=O)C(=O)N3CCN(C(=O)c4ccccc4)C[C@H]3C)c[nH]c12 | > 300000 | 0.75 | 
22 | NC(=O)c1ccc(F)c2c(C(=O)C(=O)N3CCN(C(=O)c4ccccn4)CC3)c[nH]c12 | > 300000 | 7.59 | 
23 | C[C@@H]1CN(C(=O)c2ccccn2)CCN1C(=O)C(=O)c1c[nH]c2c(C(N)=O)ccc(F)c12 | > 300000 | 1.42 | 
24 | O=C(Nc1ccncc1)c1ccc(F)c2c(C(=O)C(=O)N3CCN(C(=O)c4ccccc4)CC3)c[nH]c12 | > 300000 | 3.37 | 
25 | O=C(Nc1cccnc1)c1ccc(F)c2c(C(=O)C(=O)N3CCN(C(=O)c4ccccc4)CC3)c[nH]c12 | 132000 | 9.09 | 
26 | NC(=O)c1ccc(F)c2c(C(=O)C(=O)N3CCN(C(=O)c4ccccc4)CC3)c[nH]c12 | > 300000 | 2.03 | half-life [1]: > 1.67 h; bioavailability [7]: 21%; Papp [6]: 2.4 ×10⁻⁶ cm/s
27 | CNC(=O)c1ccc(F)c2c(C(=O)C(=O)N3CCN(C(=O)c4ccccc4)CC3)c[nH]c12 | > 300000 | 0.52 | solubility [8]: 18000 µg/mL (≈ 41200 µM); half-life [1]: 1.35 h; AUC [9]: 3430 ng·h/mL; Cmax [10]: 1560 ng/mL; bioavailability [7]: 65%; AUC [11]: 4620 ng·h/mL; Cmax [12]: 1330 ng/mL; solubility ([3]; aqueous, read-out: solubility): 33 µg/mL (≈ 75.6 µM); Cmax [13]: 843 ng/mL; bioavailability [14]: 70%; IC50 [15]: > 90000 nM; bioavailability [16]: 93%; fraction unbound [17]: 0.011; half-life [18]: 2.32 h; IC50 (Hepatocyte): > 57000 nM; clearance [5]: 12 mL/min/kg; half-life [19]: 4.18 h; AUC [20]: 7030 ng·h/mL; Papp [6]: 11.2 ×10⁻⁶ cm/s; half-life [21]: 2.18 h
28 | CN(C)C(=O)c1ccc(F)c2c(C(=O)C(=O)N3CCN(C(=O)c4ccccc4)CC3)c[nH]c12 | > 300000 | 407 | 
29 | CONC(=O)c1ccc(F)c2c(C(=O)C(=O)N3CCN(C(=O)c4ccccc4)CC3)c[nH]c12 | > 300000 | 3.83 | 
30 | NNC(=O)c1ccc(F)c2c(C(=O)C(=O)N3CCN(C(=O)c4ccccc4)CC3)c[nH]c12 | > 300000 | 2.69 | 
31 | COCCNC(=O)c1ccc(F)c2c(C(=O)C(=O)N3CCN(C(=O)c4ccccc4)CC3)c[nH]c12 | 298000 | 18.8 | 
32 | NCCNC(=O)c1ccc(F)c2c(C(=O)C(=O)N3CCN(C(=O)c4ccccc4)CC3)c[nH]c12 | 135000 | 12.8 | 
33 | CN(C)CCNC(=O)c1ccc(F)c2c(C(=O)C(=O)N3CCN(C(=O)c4ccccc4)CC3)c[nH]c12 | > 300000 | 316 | 
34 | O=C(NCCN1CCOCC1)c1ccc(F)c2c(C(=O)C(=O)N3CCN(C(=O)c4ccccc4)CC3)c[nH]c12 | > 300000 | 7.95 | 
35 | CC(=O)N1CC(NC(=O)c2ccc(F)c3c(C(=O)C(=O)N4CCN(C(=O)c5ccccc5)CC4)c[nH]c23)C1 | > 300000 | 11.2 | 
36 | O=C(NCc1ccccc1)c1ccc(F)c2c(C(=O)C(=O)N3CCN(C(=O)c4ccccc4)CC3)c[nH]c12 | > 300000 | 109 | 
37 | O=C(NCc1nc2ccccc2[nH]1)c1ccc(F)c2c(C(=O)C(=O)N3CCN(C(=O)c4ccccc4)CC3)c[nH]c12 | > 300000 | 6.73 | 
38 | COc1ncc(OC)c2c(C(=O)C(=O)N3CCN(C(=O)c4ccccc4)CC3)c[nH]c12 | > 300000 | 0.75 | 
